{"source": "patent US20080131384A1", "about": "“External Preparation for Skin Whitening, Whitening Agent, Whitening Method and Method of Production of External Preparation for Skin Whitening” (Shiseido Company, Ltd., priority 2004, published 2008)", "test_system": "Mouse B16 melanoma cells", "test": "Visual determination of melanin amount and number of cells in cultured B16 melanoma cells", "type": "cell-based", "design": "key: Good: whiter in comparison with the reference, and determined that the amount of melanin was small; Fair: slightly whiter in comparison with the reference, and determined that the amount of melanin was slightly small; Poor: equally white in comparison with the reference, and determined that the amount of melanin was almost the same", "conditions": "3 days incubation", "experimental": "Mouse B16 melanoma cells were used. These were cultured in Eagle's MEM containing 10% FBS and theophylline (0.09 mg/ml) in a CO2 incubator (95% air, 5% carbon dioxide) at 37° C. After 24 hours of culture, the sample solution was added to give a final concentration of 2×10^−3 to 2×10^−5 weight % (as dried extract concentration). After further incubation for 3 days, the amount of melanin was determined visually by the following method.\nA diffuser plate was placed on the lid of a well plate, the number of cells and the amount of melanin in the cells were observed by an inverted microscope and compared with a reference sample to which no plant extracts were added. The results are shown in Table I. Further, as a positive control, a similar examination as the above was performed for arbutin, which is already known to have an action suppressing melanin production.\nJudgment Criteria • Good: whiter in comparison with the reference, and determined that the amount of melanin was small. • Fair: slightly whiter in comparison with the reference, and determined that the amount of melanin was slightly small. • Poor: equally white in comparison with the reference, and determined that the amount of melanin was almost the same."}
{"compound": "OC[C@H]1O[C@@H](Oc2ccc(O)cc2)[C@H](O)[C@@H](O)[C@@H]1O", "note": "[Arbutin, arbutin]", "values": [{"measurement": "Visual Evaluation of Melanin Production", "setting": "sample concentration 0.001 mass %", "value": "Fair"}, {"measurement": "Visual Evaluation of Melanin Production", "setting": "sample concentration 0.002 mass %", "value": "Good"}]}
